US20260035360A1, “INHIBITORS OF MYC AND USES THEREOF” (Northwestern University, priority 2022, published 2026)
Where two headings read alike, the source gives them in different places.

How the values were obtained:
Format in all cases: cell-based
MYC = biological target: T1, MYC (Homo sapiens, UniProt P01106); assay: MYC protein level in PC3 cells by western blot, 24 hr; conditions: Actin control; for remaining activity at 10 µM: read-out: Relative MYC protein at 10 μM (%, PC3 24 h)
T1 construct: endogenous in cells; host or cells: PC3 cells
Protocol: (§1) Table 2. Biological data of selected compounds. For IC50 determination. PC3 and PC12 cells were treated with increasing concentrations of the indicated compounds for 72 hrs and cell viability assessed using CellTitreGlo Assay (Promega). For MYC and ATF4 protein level determination. PC3 cells were treated with the indicated compounds for 24 hr sand cell lysates processed for western blot with MYC and ATF4 antibodies using Actin as a control. Quantification analyses were performed by Biorad ChemiDoc Imager and Bio-Rad Image Lab software.

ATF4 = ATF4 protein level in PC3 cells by western blot, 24 hr; conditions: Actin control; for fold induction at 10 µM: Homo sapiens, PC-3, PC3, 24 h, read-out: Relative ATF4 protein at 10 μM (fold change, PC3 24 h)
Protocol: as §1

PC3 cells = assay: PC3 cell viability, CellTitreGlo Assay, 72 hrs; conditions: Homo sapiens, PC-3
Protocol: as §1

T1 sequence (P01106 whole entry): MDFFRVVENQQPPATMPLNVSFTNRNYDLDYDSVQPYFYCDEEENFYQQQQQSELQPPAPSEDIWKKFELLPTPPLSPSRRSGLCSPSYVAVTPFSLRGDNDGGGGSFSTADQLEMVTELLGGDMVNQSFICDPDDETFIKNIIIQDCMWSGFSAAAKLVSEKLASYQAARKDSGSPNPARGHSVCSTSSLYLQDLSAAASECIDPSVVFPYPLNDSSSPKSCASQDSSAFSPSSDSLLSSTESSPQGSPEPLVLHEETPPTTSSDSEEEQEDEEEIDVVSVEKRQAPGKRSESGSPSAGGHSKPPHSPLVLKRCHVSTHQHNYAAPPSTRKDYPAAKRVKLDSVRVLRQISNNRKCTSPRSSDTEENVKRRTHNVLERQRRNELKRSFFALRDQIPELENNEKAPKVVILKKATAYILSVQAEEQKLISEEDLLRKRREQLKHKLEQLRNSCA

Structure (SMILES) | remaining activity at 10 µM (MYC; PC-3, 24 h, PC3, 24 h) [%] | fold induction at 10 µM (ATF4) | IC50 (PC3 cells) [µM] | remaining activity at 10 µM (MYC; PC-3, PC3, 24 h) [%] | Relative ATF4 protein at 10 μM (fold change, PC3 24 h) (ATF4) [fold change] | Relative MYC protein at 10 μM (%, PC3 24 h) (MYC) [%]
Cn1nc(C(F)(F)F)cc1-c1ccc(OCCCCCNC(=O)[C@H](CCCN=C(NC(=O)OC(C)(C)C)NC(=O)OC(C)(C)C)NC(=O)OC(C)(C)C)c(-c2ccc(Cl)c(C(F)(F)F)c2)c1O [NUCC-0226219] | 90.6 |  |  |  |  | 
Cc1ncsc1-c1ccc(CNC(=O)[C@@H]2C[C@@H](O)CN2C(=O)[C@@H](NC(=O)C2(F)CC2)C(C)(C)C)c(OCCOCCOCCOCCCCCOc2ccc(-c3cc(C(F)(F)F)nn3C)c(O)c2-c2ccc(Cl)c(C(F)(F)F)c2)c1 [NUCC-0226220] | 90.1 |  |  |  |  | 
Cc1ncsc1-c1ccc(CNC(=O)[C@@H]2C[C@@H](O)CN2C(=O)[C@@H](NC(=O)C2(F)CC2)C(C)(C)C)c(OCCOCCOCCOCCOCCCCCOc2ccc(-c3cc(C(F)(F)F)nn3C)c(O)c2-c2ccc(Cl)c(C(F)(F)F)c2)c1 [NUCC-0226221] | 85.9 |  |  |  |  | 
COc1ccc(C2=N[C@@H](c3ccc(Cl)cc3)[C@@H](c3ccc(Cl)cc3)N2C(=O)N2CCN(CCCCCOc3ccc(-c4cc(C(F)(F)F)nn4C)c(O)c3-c3ccc(Cl)c(C(F)(F)F)c3)C(=O)C2)c(OC(C)C)c1 [NUCC-0226223] | 91.5 | 5.5 | 18.6 |  |  | 
Cn1nc(C(F)(F)F)cc1-c1ccc(OCCCCCOCCOCCOc2cccc3c2C(=O)N(C2CCC(=O)NC2=O)C3=O)c(-c2ccc(Cl)c(C(F)(F)F)c2)c1O (centres unmarked) [NUCC-0226224] | 84.2 | 8.1 | 10.1 |  |  | 
Cc1ncsc1-c1ccc(CNC(=O)[C@@H]2C[C@@H](O)CN2C(=O)[C@@H](NC(=O)CCCCCCCCNC(=O)CCOCCCN(C(=O)c2ccc(Cl)c(C(F)(F)F)c2)c2ccc(-c3cc(C(F)(F)F)nn3C)c(O)c2)C(C)(C)C)cc1 [NUCC-0226226] | 81.9 | 10.6 | 5.1 |  |  | 
Cc1ncsc1-c1ccc(CNC(=O)[C@@H]2C[C@@H](O)CN2C(=O)[C@@H](NC(=O)CCCCCCCCCCNC(=O)CCOCCCN(C(=O)c2ccc(Cl)c(C(F)(F)F)c2)c2ccc(-c3cc(C(F)(F)F)nn3C)c(O)c2)C(C)(C)C)cc1 [NUCC-0226227] | 102 | 10.2 | 22.3 |  |  | 
Cc1ncsc1-c1ccc(CNC(=O)[C@@H]2C[C@@H](O)CC2C(=O)[C@@H](NC(=O)COCCNC(=O)CCOCCCN(C(=O)c2ccc(Cl)c(C(F)(F)F)c2)c2ccc(-c3cc(C(F)(F)F)nn3C)c(O)c2)C(C)(C)C)cc1 (some centres unmarked) [NUCC-0226228] | 38.1 | 23.1 | 6 |  |  | 
Cn1nc(C(F)(F)F)cc1-c1ccc(N(CCCOCCC(=O)NCCCCCCOc2cccc3c2C(=O)N(C2CCC(=O)NC2=O)C3=O)C(=O)c2ccc(Cl)c(C(F)(F)F)c2)cc1O (centres unmarked) [NUCC-0226229] | 56.4 | 16.4 | 15.6 |  |  | 
Cn1nc(C(F)(F)F)cc1-c1ccc(N(CCCOCCC(=O)NCCCCNC(=O)COc2cccc3c2C(=O)N(C2CCC(=O)NC2=O)C3=O)C(=O)c2ccc(Cl)c(C(F)(F)F)c2)cc1O (centres unmarked) [NUCC-0226230] | 105 | 1.9 |  |  |  | 
Cn1nc(C(F)(F)F)cc1-c1ccc(N(CCCOCCC(=O)NCCOCCOCCNc2cccc3c2C(=O)N(C2CCC(=O)NC2=O)C3=O)C(=O)c2ccc(Cl)c(C(F)(F)F)c2)cc1O (centres unmarked) [NUCC-0226231] | 53.6 | 14.3 | 8.5 |  |  | 
CC(=O)Oc1c(-c2cc(C(F)(F)F)nn2C)ccc(OCc2ccccc2)c1-c1ccc(Cl)c(C(F)(F)F)c1 [NUCC-0226258] | 56.4 | 5.8 |  |  |  | 
Cn1nc(C(F)(F)F)cc1-c1ccc(O)c(-c2ccc(Cl)c(C(F)(F)F)c2)c1O [NUCC-0226259] | 52 | 3.3 |  |  |  | 
Cn1nc(C(F)(F)F)cc1-c1ccc(OCc2ccccc2)c(-c2ccc(Cl)c(C(F)(F)F)c2)c1O [NUCC-0226260] |  | 4.6 |  | 41.5 |  | 
O=c1oc2c(-c3ccc(Cl)c(C(F)(F)F)c3)c(O)ccc2c2cc(C(F)(F)F)nn12 [NUCC-0226261] | 93.1 | 4.4 |  |  |  | 
CC(=O)Oc1c(-c2cc(C(F)(F)F)nn2C)ccc(OCc2ccc(OCCOCCOS(=O)(=O)c3ccc(C)cc3)cc2)c1-c1ccc(Cl)c(C(F)(F)F)c1 [NUCC-0226263] | 113 | 0.7 |  |  |  | 

Structure (SMILES) | remaining activity at 10 µM (MYC; PC-3, 24 h, PC3, 24 h) [%] | fold induction at 10 µM (ATF4) | IC50 (PC3 cells) [µM] | remaining activity at 10 µM (MYC; PC-3, PC3, 24 h) [%] | Relative ATF4 protein at 10 μM (fold change, PC3 24 h) (ATF4) [fold change] | Relative MYC protein at 10 μM (%, PC3 24 h) (MYC) [%]
Cc1ncsc1-c1ccc(CNC(=O)[C@@H]2C[C@@H](O)CN2C(=O)[C@@H](NC(=O)C2(F)CC2)C(C)(C)C)c(OCCOCCOCCCCCOc2ccc(-c3cc(C(F)(F)F)nn3C)c(O)c2-c2ccc(Cl)c(C(F)(F)F)c2)c1 [NUCC-0226264] | 102 | 1.3 |  |  |  | 
Cc1ncsc1-c1ccc(CNC(=O)[C@@H]2C[C@@H](O)CN2C(=O)[C@@H](NCCOCCOCCCCCOc2ccc(-c3cc(C(F)(F)F)nn3C)c(O)c2-c2ccc(Cl)c(C(F)(F)F)c2)C(C)(C)C)cc1 [NUCC-0226265] | 115 | 2.2 |  |  |  | 
Cc1ncsc1-c1ccc(CNC(=O)[C@@H]2C[C@@H](O)CC2C(=O)[C@@H](NCCOCCOCCOCCCCCOc2ccc(-c3cc(C(F)(F)F)nn3C)c(O)c2-c2ccc(Cl)c(C(F)(F)F)c2)C(C)(C)C)cc1 (some centres unmarked) [NUCC-0226266] | 91.8 | 1.7 |  |  |  | 
COCCCN(C(=O)c1ccc(C(F)(F)F)c(Cl)c1)c1ccc(-c2cc(C(F)(F)F)nn2C)c(O)c1 [NUCC-0226267] | 46.4 | 8 | 4.6 |  |  | 
COCCOCCCN(C(=O)c1ccc(C(F)(F)F)c(Cl)c1)c1ccc(-c2cc(C(F)(F)F)nn2C)c(O)c1 [NUCC-0226268] | 52.9 | 5.4 |  |  |  | 
Cc1ncsc1-c1ccc(CNC(=O)[C@@H]2C[C@@H](O)CN2C(=O)[C@@H](NCCOCCOc2ccc(COc3ccc(-c4cc(C(F)(F)F)nn4C)c(O)c3-c3ccc(Cl)c(C(F)(F)F)c3)cc2)C(C)(C)C)cc1 [NUCC-0226276] | 70 | 0.4 |  |  |  | 
Cc1ncsc1-c1ccc(CNC(=O)[C@@H]2C[C@@H](O)CN2C(=O)[C@@H](NC(=O)C2(F)CC2)C(C)(C)C)c(OCCOCCOc2ccc(COc3ccc(-c4cc(C(F)(F)F)nn4C)c(O)c3-c3ccc(Cl)c(C(F)(F)F)c3)cc2)c1 [NUCC-0226277] | 97.6 | 1.6 |  |  |  | 
Cn1nc(C(F)(F)F)cc1-c1ccc(OCc2ccc(OCCOCCOc3cccc4c3C(=O)N(C3CCC(=O)NC3=O)C4=O)cc2)c(-c2ccc(Cl)c(C(F)(F)F)c2)c1O (centres unmarked) [NUCC-0226279] | 85.1 | 2.1 |  |  |  | 
CC(C)Cc1ccc(CN(C(=O)c2ccc(Cl)c(C(F)(F)F)c2)c2ccc(-c3cc(C(F)(F)F)nn3C)c(O)c2)cc1 [NUCC-0226280] | 45.2 | 10.3 |  |  |  | 
Cn1nc(C(F)(F)F)cc1-c1ccc(N(CCCOCCC(=O)NCCOCCNc2cccc3c2C(=O)N(C2CCC(=O)NC2=O)C3=O)C(=O)c2ccc(Cl)c(C(F)(F)F)c2)cc1O (centres unmarked) [NUCC-0226288] | 54.2 | 6.6 | 6 |  |  | 
Cn1nc(C(F)(F)F)cc1-c1ccc(N(CCCOCCC(=O)NCCOCCOCCOCCNc2cccc3c2C(=O)N(C2CCC(=O)NC2=O)C3=O)C(=O)c2ccc(Cl)c(C(F)(F)F)c2)cc1O (centres unmarked) [NUCC-0226289] | 120 | 7 | 7.4 |  |  | 
Cn1nc(C(F)(F)F)cc1-c1ccc(OCc2ccc(OCCOCCNC(=O)COc3cccc4c3C(=O)N(C3CCC(=O)NC3=O)C4=O)cc2)c(-c2ccc(Cl)c(C(F)(F)F)c2)c1O (centres unmarked) [NUCC-0226302] | 79.4 | 2 |  |  |  | 
Cn1nc(C(F)(F)F)cc1-c1ccc(OCCCOCCC(=O)NCCOCCOCCNc2cccc3c2C(=O)N(C2CCC(=O)NC2=O)C3=O)c(-c2ccc(Cl)c(C(F)(F)F)c2)c1O (centres unmarked) [NUCC-0226304] | 170 | 4.6 |  |  |  | 
Cn1nc(C(F)(F)F)cc1-c1ccc(OCc2ccc(Cl)cc2)c(-c2ccc(F)cc2)c1O [NUCC-0226503] | 129 | 3 |  |  |  | 
Cn1nncc1-c1ccc(OCc2ccc(Cl)cc2)c(-c2ccc(Cl)c(C(F)(F)F)c2)c1O [NUCC-0226656] |  |  |  |  | 1.5 | 103
Cn1nncc1-c1ccc(OCc2ccc(Cl)cc2)c(-c2ccc(Cl)c(C(F)(F)F)c2)c1O [NUCC-0226659] | 90.3 | 1.5 |  |  |  | 
